Measurements from patent US11324738B2, “Muscarinic agonists” (Heptares Therapeutics Limited, priority 2015, dated 2022).

Legend:
Assay type in all cases: cell-based
[1] = target: T1, human muscarinic M1 receptor (Homo sapiens, UniProt P11229); test: Alphascreen Surefire phospho-ERK1/2 functional assay, CHO cells expressing M1; conditions: for Emax: CHO, read-out: % Emax cf. ACh, M1; for EC50: agonist, CHO cells, phospho-ERK1/2, read-out: pEC50 M1 (converted)
T1 construct: expressed in transfected cells
T1 sequence (P11229 1-460): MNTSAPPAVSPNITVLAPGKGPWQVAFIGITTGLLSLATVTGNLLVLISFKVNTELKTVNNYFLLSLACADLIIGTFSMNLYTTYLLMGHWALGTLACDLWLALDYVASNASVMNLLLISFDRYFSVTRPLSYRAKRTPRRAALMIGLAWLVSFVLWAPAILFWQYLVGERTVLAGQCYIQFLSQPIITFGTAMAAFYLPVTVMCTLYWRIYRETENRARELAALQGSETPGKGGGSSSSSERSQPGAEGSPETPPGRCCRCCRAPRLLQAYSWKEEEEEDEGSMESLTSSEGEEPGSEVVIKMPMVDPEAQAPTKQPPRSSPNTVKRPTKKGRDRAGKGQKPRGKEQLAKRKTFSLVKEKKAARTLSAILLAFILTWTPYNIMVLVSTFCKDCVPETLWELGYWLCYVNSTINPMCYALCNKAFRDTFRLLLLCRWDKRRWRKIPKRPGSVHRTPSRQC
Protocol: (§1) ERK1/2 phosphorylation is a downstream consequence of both Gq/11 and Gi/o protein coupled receptor activation, making it highly suitable for the assessment of M1, M3 (Gq/11 coupled) and M2, M4 receptors (Gi/o coupled), rather than using different assay formats for different receptor subtypes. CHO cells stably expressing the human muscarinic M1, M2, M3 or M4 receptor were plated (25K/well) onto 96-well tissue culture plates in MEM-alpha+10% dialysed FBS. Once adhered, cells were serum-starved overnight. Agonist stimulation was performed by the addition of 5 μL agonist to the cells for 5 min (37° C.). Media was removed and 50 μL of lysis buffer added. After 15 min, a 4 μL sample was transferred to 384-well plate and 7 μL of detection mixture added.

[2] = target: T2, human muscarinic M2 receptor (Homo sapiens, UniProt P08172); test: Alphascreen Surefire phospho-ERK1/2 functional assay, CHO cells expressing M2; conditions: for Emax: CHO, read-out: % Emax cf. ACh, M2; for EC50: agonist, CHO cells, phospho-ERK1/2, read-out: pEC50 M2 (converted)
T2 construct: expressed in transfected cells
T2 sequence (P08172 1-466): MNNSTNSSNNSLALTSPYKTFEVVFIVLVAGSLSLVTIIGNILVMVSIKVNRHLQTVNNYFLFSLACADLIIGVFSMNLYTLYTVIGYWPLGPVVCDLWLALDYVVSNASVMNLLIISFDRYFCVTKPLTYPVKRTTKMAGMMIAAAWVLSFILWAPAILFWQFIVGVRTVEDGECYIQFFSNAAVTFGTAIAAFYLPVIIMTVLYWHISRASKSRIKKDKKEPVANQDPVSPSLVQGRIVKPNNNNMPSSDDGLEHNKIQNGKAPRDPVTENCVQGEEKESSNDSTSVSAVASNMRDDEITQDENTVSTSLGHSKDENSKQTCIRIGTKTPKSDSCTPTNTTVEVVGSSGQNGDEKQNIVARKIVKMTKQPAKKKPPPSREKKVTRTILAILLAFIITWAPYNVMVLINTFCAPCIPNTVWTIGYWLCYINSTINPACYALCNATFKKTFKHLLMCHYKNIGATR
Protocol: as §1

[3] = target: T3, human muscarinic M3 receptor (Homo sapiens, UniProt P20309); test: Alphascreen Surefire phospho-ERK1/2 functional assay, CHO cells expressing M3; conditions: for Emax: CHO, read-out: % Emax cf. ACh, M3; for EC50: agonist, CHO cells, phospho-ERK1/2, read-out: pEC50 M3 (converted)
T3 construct: expressed in transfected cells
Protocol: as §1

[4] = target: T4, human muscarinic M4 receptor (Homo sapiens, UniProt P08173); test: Alphascreen Surefire phospho-ERK1/2 functional assay, CHO cells expressing M4; conditions: for Emax: CHO, read-out: % Emax cf. ACh, M4; for EC50: agonist, CHO cells, phospho-ERK1/2, read-out: pEC50 M4 (converted)
T4 construct: expressed in transfected cells
T4 sequence (P08173 1-479): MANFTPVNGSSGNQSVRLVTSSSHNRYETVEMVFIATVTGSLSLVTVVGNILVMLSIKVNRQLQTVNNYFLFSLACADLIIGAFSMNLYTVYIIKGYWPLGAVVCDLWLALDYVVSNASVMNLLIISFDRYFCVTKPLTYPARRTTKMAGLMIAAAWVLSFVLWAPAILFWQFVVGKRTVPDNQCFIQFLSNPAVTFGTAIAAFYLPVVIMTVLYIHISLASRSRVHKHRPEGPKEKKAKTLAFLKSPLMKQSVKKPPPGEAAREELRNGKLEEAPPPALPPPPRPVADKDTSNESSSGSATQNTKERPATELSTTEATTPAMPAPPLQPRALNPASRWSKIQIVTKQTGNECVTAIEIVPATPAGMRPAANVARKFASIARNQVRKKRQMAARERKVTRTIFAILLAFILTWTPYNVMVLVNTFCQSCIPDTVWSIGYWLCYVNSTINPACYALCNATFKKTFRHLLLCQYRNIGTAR
Protocol: as §1

T3 sequence (P20309 whole entry): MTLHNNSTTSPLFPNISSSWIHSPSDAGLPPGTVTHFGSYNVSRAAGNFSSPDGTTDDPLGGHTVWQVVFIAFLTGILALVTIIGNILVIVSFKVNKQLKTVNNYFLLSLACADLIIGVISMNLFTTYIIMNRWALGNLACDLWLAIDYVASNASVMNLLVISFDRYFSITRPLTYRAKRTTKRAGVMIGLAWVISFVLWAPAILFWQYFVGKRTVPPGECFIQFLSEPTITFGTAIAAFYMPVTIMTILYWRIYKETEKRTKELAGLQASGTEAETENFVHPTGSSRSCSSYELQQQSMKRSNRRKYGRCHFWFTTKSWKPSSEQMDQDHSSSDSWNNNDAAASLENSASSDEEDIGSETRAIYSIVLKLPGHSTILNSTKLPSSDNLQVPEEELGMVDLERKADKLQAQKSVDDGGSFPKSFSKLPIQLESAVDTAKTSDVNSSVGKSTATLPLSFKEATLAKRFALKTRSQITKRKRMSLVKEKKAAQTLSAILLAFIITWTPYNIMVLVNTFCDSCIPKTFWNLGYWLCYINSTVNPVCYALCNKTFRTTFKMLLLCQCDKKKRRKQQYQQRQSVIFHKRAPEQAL

SMILES | Emax [1] [%] | EC50 [1] [nM] | Emax [2] [%] | EC50 [2] [nM] | Emax [3] [%] | EC50 [3] [nM] | Emax [4] [%] | EC50 [4] [nM]
CCOC(=O)N1CC2(CCC(N3CCC(N4C(=O)CC[C@@H]4C)CC3)C2)C1 (mixture of isomers) [Example 2-5 (mixture of isomers), ethyl 6-{4-[(2S)-2-methyl-5-oxopyrrolidin-1-yl]piperidin-1-yl}-2-azaspiro[3.4]octane-2-carboxylate] | 38 | 158 | 6 | > 20000 | 3 | > 20000 | 36 | 12.6
CCOC(=O)N1CC2(CC(N3CCC([C@@H]4CCCN4C(=O)NC)CC3)C2)C1 [Example 1-4, Ethyl 6-{4-[(2S)-1-(methylcarbamoyl)pyrrolidin-2-yl]piperidin-1-yl}-2-azaspiro[3.3]heptane-2-carboxylate] | 71 | 794 | 6 | > 20000 | 7 | > 20000 | 97 | 15.8
CCOC(=O)N1CC2(CCC(N3CCC(c4nccn4C)CC3)C2)C1 (racemic) [Example 2-2 (racemic), Ethyl 6-[4-(1-methyl-1H-imidazol-2-yl)piperidin-1-yl]-2-azaspiro[3.4]octane-2-carboxylate] | 7 | 501 | 7 | > 20000 | 5 | > 20000 | 102 | 31.6
